Where a name gives a salt, the structure may show the parent alone. Active and inactive are the calls of the source. No cut-off for these calls is given here.
How the values were obtained:
Mu-type opioid receptor [1] = target: T1, Mu-type opioid receptor (Homo sapiens, UniProt P35372); assay: Antagonist activity at human recombinant mu opioid receptor expressed in AequoScreen cells assessed as aequorin-derived receptor-mediated changes in intracellular calcium levels; type: functional, cell-based
Mu-type opioid receptor [2] = target: T1, Mu-type opioid receptor; assay: Agonist activity at human recombinant mu opioid receptor expressed in AequoScreen cells assessed as aequorin-derived receptor-mediated changes in intracellular calcium levels; type: functional, cell-based
[3] = target: Beta-2 adrenergic receptor (Cavia porcellus, UniProt Q8K4Z4)
Description: Agonist activity at adrenergic beta2 receptor in guinea pig trachea assessed as relaxation of carbachol-induced tissue contraction

Mu-type opioid receptor [4] = target: T1, Mu-type opioid receptor; assay: Displacement of [3H]DAMGO from human recombinant mu opioid receptor expressed in HEK293 cells by scintillation counting; type: cell-based

T1 sequence (P35372 whole entry): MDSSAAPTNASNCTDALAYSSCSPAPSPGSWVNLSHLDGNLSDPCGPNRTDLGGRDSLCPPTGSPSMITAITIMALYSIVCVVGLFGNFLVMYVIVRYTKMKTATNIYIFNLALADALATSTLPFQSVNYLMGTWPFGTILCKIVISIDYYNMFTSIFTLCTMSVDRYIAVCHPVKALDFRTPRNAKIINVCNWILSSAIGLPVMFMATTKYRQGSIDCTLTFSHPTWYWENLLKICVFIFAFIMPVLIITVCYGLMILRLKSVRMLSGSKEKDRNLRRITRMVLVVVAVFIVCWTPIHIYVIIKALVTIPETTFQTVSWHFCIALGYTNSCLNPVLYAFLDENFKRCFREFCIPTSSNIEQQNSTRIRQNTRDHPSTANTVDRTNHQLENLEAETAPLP
Beta-2 adrenergic receptor, sequence (Q8K4Z4 whole entry): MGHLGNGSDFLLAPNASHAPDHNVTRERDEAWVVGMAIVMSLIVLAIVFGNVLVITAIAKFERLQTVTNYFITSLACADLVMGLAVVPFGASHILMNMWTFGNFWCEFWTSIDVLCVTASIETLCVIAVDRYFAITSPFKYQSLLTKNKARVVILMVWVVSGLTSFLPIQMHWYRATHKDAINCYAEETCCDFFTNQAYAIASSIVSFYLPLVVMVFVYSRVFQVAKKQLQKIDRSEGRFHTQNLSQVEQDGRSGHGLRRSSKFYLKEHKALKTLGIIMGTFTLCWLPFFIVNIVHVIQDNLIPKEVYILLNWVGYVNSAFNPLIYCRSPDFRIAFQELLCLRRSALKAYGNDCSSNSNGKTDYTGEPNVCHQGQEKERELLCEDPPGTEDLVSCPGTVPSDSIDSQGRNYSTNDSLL

CC(C)N[C@H]1CCn2c(=O)[nH]c3cccc(c32)[C@@H]1O
Emax (Mu-type opioid receptor [1]): 96%
IC50 (Mu-type opioid receptor [1]): 140 µM
Activity (Mu-type opioid receptor [2]): inactive

CC(C)(C)NCC(O)c1cc(Cl)c(N)c(Cl)c1 (racemic) [CLENBUTEROL]
EC50 [3]: 0.013 µM

CC(C)N[C@@H]1CCn2c(=O)[nH]c3cccc(c32)[C@H]1O [ZILPATEROL HYDROCHLORIDE]
IC50 (Mu-type opioid receptor [1]): > 1000 µM

CC(C)N[C@@H]1CCn2c(=O)[nH]c3cccc(c32)[C@H]1O (racemic)
Emax (Mu-type opioid receptor [1]): 93%
Activity (Mu-type opioid receptor [2]): inactive

CC(C)N[C@@H]1CCn2c(=O)[nH]c3cccc(c32)[C@H]1O
Activity (Mu-type opioid receptor [2]): inactive

CC(C)N[C@@H]1CCn2c(=O)[nH]c3cccc(c32)[C@H]1O (racemic) [ZILPATEROL HYDROCHLORIDE]
IC50 (Mu-type opioid receptor [1]): 300 µM
IC50 (Mu-type opioid receptor [4]): 31 µM
Ki (Mu-type opioid receptor [4]): 13 µM

— ChEMBL document CHEMBL1152790, “Synthesis and pharmacological characterization of beta2-adrenergic agonist enantiomers: zilpaterol” (J Med Chem, 2009)
